Experimental data taken from the kinase profiling compilation of Christmann-Franck et al. (2016).

Tests used:
Test in all cases: radiometric filter-binding kinase assay
MAPK10 (human) = MAPK10 (human) (UniProt P53779)
IKBKB (human) = IKBKB (human) (UniProt O14920)
PKN2 (human) = PKN2 (human) (UniProt Q16513)
MAP2K1 (human) = MAP2K1 (human) (UniProt Q02750)
NUAK1 (human) = NUAK1 (human) (UniProt O60285)
MAP3K11 (human) = MAP3K11 (human) (UniProt Q16584)
TAOK1 (human) = TAOK1 (human) (UniProt Q7L7X3)
TAOK1 (human), sequence (Q7L7X3 whole entry, looked up): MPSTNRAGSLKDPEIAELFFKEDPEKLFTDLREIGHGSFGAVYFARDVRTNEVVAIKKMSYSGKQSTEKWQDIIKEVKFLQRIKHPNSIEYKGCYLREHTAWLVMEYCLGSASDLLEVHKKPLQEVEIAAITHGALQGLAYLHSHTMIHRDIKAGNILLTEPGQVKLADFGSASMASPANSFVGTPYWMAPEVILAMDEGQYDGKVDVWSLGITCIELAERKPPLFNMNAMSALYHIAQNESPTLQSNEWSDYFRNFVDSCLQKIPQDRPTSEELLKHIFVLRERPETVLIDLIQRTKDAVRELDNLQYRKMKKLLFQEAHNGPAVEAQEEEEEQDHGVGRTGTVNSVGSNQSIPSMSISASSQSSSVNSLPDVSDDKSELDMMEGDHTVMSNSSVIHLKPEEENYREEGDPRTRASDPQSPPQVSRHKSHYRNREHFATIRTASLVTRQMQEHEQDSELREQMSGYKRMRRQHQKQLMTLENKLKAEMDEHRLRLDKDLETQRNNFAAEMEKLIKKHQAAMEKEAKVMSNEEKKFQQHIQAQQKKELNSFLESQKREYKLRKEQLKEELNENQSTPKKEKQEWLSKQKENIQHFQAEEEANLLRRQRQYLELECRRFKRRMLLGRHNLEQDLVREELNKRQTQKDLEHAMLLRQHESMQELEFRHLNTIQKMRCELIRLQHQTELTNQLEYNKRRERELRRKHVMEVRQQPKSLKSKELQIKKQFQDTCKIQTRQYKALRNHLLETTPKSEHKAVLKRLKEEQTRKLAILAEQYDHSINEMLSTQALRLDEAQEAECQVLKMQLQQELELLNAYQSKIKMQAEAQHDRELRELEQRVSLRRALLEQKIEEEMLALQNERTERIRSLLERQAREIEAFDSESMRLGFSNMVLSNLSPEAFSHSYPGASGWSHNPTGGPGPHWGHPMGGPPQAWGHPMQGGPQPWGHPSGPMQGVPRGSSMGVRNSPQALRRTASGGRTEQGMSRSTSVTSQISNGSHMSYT

SRC (human) = SRC (human) (UniProt P12931)
PAK6 (human) = PAK6 (human) (UniProt Q9NQU5)
PAK6 (human), sequence (Q9NQU5 whole entry, looked up): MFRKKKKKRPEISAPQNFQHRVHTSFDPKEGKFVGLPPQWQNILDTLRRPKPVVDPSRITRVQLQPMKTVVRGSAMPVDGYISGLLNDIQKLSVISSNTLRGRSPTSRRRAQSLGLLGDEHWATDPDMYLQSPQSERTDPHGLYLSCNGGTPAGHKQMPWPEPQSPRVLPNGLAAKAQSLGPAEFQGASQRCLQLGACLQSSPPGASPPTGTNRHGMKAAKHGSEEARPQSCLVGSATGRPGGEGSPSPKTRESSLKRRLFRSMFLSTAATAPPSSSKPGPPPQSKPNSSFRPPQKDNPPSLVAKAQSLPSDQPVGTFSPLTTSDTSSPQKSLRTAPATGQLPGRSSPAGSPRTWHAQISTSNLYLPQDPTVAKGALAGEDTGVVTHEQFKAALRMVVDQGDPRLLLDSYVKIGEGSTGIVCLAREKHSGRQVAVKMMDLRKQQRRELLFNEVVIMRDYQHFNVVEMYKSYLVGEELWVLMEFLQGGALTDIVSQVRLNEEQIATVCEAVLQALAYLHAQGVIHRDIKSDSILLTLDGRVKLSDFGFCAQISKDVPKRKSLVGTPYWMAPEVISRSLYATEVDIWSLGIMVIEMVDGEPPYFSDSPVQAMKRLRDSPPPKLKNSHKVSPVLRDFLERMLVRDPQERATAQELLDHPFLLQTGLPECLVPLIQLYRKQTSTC

ROCK2 (rat) = conditions: accession and sequence are those of the human protein
RPS6KA3 KD1 KD2 (human) = RPS6KA3 KD1 KD2 (human) (UniProt P51812)
AURKB (human) = AURKB (human) (UniProt Q96GD4)
MST4 (human) = MST4 (human) (UniProt Q9P289)
[1] = system: AKT1 (human), P31749 [S473D]
EPHA4 (human) = EPHA4 (human) (UniProt P54764)
EPHB1 (human) = EPHB1 (human) (UniProt P54762)
MAP3K7 TAB1 (human) = MAP3K7 TAB1 (human) (UniProt Q15750+O43318)
CHEK1 (human) = CHEK1 (human) (UniProt O14757)
MAPK8 (human) = MAPK8 (human) (UniProt P45983)
GCK (human) = GCK (human) (UniProt Q12851)
[2] = system: PAK2 (human), Q13177 [T402E]
TBK1 (human) = TBK1 (human) (UniProt Q9UHD2)
CSK (human) = CSK (human) (UniProt P41240)
MINK1 (human) = MINK1 (human) (UniProt Q8N4C8)
CHEK2 (human) = CHEK2 (human) (UniProt O96017)
CDK2 CCNA2 (human) = CDK2 CCNA2 (human) (UniProt P20248+P24941)
TTK (human) = TTK (human) (UniProt P33981)
EPHB2 (human) = EPHB2 (human) (UniProt P29323)
MYLK (human) = MYLK (human) (UniProt Q15746)
MARK2 (human) = MARK2 (human) (UniProt Q7KZI7)
EPHB3 (human) = EPHB3 (human) (UniProt P54753)
EPHB3 (human), sequence (P54753 whole entry, looked up): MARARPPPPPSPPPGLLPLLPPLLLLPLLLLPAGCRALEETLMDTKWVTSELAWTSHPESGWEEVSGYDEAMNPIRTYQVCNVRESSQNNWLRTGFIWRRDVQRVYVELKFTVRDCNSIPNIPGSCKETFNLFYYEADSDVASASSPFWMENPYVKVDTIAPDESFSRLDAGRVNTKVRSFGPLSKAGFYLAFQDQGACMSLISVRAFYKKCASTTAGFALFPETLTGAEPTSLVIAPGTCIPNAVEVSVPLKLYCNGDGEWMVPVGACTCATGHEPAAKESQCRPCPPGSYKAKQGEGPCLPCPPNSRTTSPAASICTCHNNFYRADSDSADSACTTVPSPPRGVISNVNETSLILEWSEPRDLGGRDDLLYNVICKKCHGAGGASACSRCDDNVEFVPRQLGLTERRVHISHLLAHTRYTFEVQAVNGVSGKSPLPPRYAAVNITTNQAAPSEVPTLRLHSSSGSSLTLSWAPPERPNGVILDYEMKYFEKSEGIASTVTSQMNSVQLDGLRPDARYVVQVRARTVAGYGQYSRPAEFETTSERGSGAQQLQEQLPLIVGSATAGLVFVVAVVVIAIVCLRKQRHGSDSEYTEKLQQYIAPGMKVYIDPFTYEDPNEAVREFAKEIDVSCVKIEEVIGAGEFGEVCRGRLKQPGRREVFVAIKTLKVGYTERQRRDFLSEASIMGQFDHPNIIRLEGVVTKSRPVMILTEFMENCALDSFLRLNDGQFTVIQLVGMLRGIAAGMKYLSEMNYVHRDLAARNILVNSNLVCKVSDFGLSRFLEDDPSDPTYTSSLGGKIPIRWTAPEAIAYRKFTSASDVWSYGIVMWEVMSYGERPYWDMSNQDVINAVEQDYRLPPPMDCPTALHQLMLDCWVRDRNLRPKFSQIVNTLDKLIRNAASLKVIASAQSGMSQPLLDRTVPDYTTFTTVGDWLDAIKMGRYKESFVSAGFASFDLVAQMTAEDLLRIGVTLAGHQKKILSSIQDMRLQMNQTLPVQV

PAK4 (human) = PAK4 (human) (UniProt O96013)
CaMK1 (human) = CaMK1 (human) (UniProt Q14012)
LCK (mouse) = conditions: accession and sequence are those of the human protein
EPHA2 (human) = EPHA2 (human) (UniProt P29317)
EPHA2 (human), sequence (P29317 whole entry, looked up): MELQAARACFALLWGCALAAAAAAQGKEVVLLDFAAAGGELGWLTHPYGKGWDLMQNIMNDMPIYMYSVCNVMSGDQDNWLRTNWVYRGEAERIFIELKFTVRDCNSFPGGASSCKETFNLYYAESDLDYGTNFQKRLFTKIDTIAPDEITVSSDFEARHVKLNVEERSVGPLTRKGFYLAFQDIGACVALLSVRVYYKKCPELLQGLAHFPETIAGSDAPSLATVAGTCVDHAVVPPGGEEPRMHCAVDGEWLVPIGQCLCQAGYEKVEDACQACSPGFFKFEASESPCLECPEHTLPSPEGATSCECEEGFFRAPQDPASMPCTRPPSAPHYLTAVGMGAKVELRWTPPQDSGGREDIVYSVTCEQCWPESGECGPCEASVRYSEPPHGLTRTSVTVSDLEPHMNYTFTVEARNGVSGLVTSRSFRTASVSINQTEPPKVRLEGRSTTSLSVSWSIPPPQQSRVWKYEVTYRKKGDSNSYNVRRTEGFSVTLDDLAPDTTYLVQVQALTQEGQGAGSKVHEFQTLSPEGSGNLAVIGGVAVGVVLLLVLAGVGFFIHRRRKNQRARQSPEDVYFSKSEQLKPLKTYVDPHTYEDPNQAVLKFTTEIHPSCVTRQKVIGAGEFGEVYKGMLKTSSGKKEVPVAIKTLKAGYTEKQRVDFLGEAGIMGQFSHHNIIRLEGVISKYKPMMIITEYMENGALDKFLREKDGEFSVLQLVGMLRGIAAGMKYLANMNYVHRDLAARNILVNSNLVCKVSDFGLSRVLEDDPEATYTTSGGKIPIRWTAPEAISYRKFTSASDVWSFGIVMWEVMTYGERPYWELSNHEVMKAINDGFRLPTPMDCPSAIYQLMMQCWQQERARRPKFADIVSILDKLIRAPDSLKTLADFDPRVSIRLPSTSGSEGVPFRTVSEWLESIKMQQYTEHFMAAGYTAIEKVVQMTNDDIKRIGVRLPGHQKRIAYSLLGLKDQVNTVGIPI

DYRK3 (human) = DYRK3 (human) (UniProt O43781)

MAP3K11 (human), sequence (Q16584 whole entry, looked up): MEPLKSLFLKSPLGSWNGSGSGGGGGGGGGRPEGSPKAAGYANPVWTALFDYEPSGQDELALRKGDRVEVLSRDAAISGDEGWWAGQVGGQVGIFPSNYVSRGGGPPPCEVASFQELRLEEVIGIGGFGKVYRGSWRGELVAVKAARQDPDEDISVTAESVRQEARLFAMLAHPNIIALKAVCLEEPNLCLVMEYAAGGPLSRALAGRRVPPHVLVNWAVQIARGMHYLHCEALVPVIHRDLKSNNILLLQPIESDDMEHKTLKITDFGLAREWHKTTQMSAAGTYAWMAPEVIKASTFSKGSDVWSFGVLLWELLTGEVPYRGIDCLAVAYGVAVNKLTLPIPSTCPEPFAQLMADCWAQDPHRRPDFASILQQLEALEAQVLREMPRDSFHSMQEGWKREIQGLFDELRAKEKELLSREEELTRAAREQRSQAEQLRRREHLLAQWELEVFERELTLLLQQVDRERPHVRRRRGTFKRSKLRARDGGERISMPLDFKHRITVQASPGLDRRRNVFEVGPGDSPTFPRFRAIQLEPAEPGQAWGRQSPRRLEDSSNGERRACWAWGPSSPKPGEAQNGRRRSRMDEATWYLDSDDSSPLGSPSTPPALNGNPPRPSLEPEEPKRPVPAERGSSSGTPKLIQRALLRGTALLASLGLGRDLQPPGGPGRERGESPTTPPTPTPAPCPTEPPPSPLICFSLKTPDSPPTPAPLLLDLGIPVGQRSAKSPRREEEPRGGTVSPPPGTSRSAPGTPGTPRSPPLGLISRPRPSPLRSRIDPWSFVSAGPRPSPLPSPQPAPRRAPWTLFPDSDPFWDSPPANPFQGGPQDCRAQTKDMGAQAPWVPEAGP
MAP2K1 (human), sequence (Q02750 whole entry, looked up): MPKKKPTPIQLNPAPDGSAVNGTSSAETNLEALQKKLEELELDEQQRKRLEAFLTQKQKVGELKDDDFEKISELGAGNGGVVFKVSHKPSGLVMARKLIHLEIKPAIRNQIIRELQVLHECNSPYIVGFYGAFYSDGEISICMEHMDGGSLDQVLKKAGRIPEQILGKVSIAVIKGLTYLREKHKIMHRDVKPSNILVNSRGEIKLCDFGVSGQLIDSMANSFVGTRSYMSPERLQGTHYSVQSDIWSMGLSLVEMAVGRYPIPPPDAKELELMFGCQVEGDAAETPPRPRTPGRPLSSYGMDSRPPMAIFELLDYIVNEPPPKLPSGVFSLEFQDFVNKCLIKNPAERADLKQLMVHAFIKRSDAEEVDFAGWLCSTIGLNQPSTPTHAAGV

residual activity (MAPK10 (human); compound 0.1 µM): 98%
residual activity (MAPK10 (human); compound 1.0 µM): 97%
residual activity (MAPK10 (human); compound 10.0 µM): 94%
residual activity (IKBKB (human); compound 1.0 µM): 98%
residual activity (IKBKB (human); compound 10.0 µM): 83%
residual activity (PKN2 (human); compound 0.1 µM): 65%
residual activity (PKN2 (human); compound 1.0 µM): 69%
residual activity (PKN2 (human); compound 10.0 µM): 37%
residual activity (MAP2K1 (human); compound 0.1 µM): 98%
residual activity (MAP2K1 (human); compound 1.0 µM): 93%
residual activity (MAP2K1 (human); compound 10.0 µM): 67%
residual activity (NUAK1 (human); compound 0.1 µM): 57%
residual activity (NUAK1 (human); compound 1.0 µM): 17%
residual activity (NUAK1 (human); compound 10.0 µM): 5%
residual activity (MAP3K11 (human); compound 0.1 µM): 86%
residual activity (MAP3K11 (human); compound 1.0 µM): 33%
residual activity (MAP3K11 (human); compound 10.0 µM): 8%
residual activity (TAOK1 (human); compound 0.1 µM): 102%
residual activity (TAOK1 (human); compound 1.0 µM): 110%
residual activity (TAOK1 (human); compound 10.0 µM): 79%
residual activity (SRC (human); compound 1.0 µM): 52%
residual activity (SRC (human); compound 10.0 µM): 16%
residual activity (PAK6 (human); compound 0.1 µM): 108%
residual activity (PAK6 (human); compound 1.0 µM): 107%
residual activity (PAK6 (human); compound 10.0 µM): 100%
residual activity (ROCK2 (rat); compound 0.1 µM): 98%
residual activity (ROCK2 (rat); compound 1.0 µM): 86%
residual activity (ROCK2 (rat); compound 10.0 µM): 85%
residual activity (RPS6KA3 KD1 KD2 (human); compound 0.1 µM): 73%
residual activity (RPS6KA3 KD1 KD2 (human); compound 1.0 µM): 69%
residual activity (RPS6KA3 KD1 KD2 (human); compound 10.0 µM): 57%
residual activity (AURKB (human); compound 0.1 µM): 95%
residual activity (AURKB (human); compound 1.0 µM): 76%
residual activity (AURKB (human); compound 10.0 µM): 47%
residual activity (MST4 (human); compound 0.1 µM): 105%
residual activity (MST4 (human); compound 1.0 µM): 123%
residual activity (MST4 (human); compound 10.0 µM): 181%
residual activity ([1]; compound 0.1 µM): 102%
residual activity ([1]; compound 1.0 µM): 103%
residual activity (EPHA4 (human); compound 0.1 µM): 84%
residual activity (EPHA4 (human); compound 1.0 µM): 83%
residual activity (EPHA4 (human); compound 10.0 µM): 57%
residual activity (EPHB1 (human); compound 0.1 µM): 117%
residual activity (EPHB1 (human); compound 10.0 µM): 100%
residual activity (MAP3K7 TAB1 (human); compound 0.1 µM): 84%
residual activity (MAP3K7 TAB1 (human); compound 1.0 µM): 44%
residual activity (MAP3K7 TAB1 (human); compound 10.0 µM): 13%
residual activity (CHEK1 (human); compound 0.1 µM): 101%
residual activity (CHEK1 (human); compound 1.0 µM): 109%
residual activity (CHEK1 (human); compound 10.0 µM): 96%
residual activity (MAPK8 (human); compound 0.1 µM): 89%
residual activity (MAPK8 (human); compound 1.0 µM): 101%
residual activity (MAPK8 (human); compound 10.0 µM): 78%
residual activity (GCK (human); compound 0.1 µM): 37%
residual activity (GCK (human); compound 1.0 µM): 11%
residual activity (GCK (human); compound 10.0 µM): 3%
residual activity ([2]; compound 0.1 µM): 100%
residual activity ([2]; compound 10.0 µM): 94%
residual activity (TBK1 (human); compound 0.1 µM): 74%
residual activity (TBK1 (human); compound 1.0 µM): 62%
residual activity (TBK1 (human); compound 10.0 µM): 26%
residual activity (CSK (human); compound 0.1 µM): 95%
residual activity (CSK (human); compound 1.0 µM): 103%
residual activity (CSK (human); compound 10.0 µM): 72%
residual activity (MINK1 (human); compound 0.1 µM): 74%
residual activity (MINK1 (human); compound 1.0 µM): 15%
residual activity (MINK1 (human); compound 10.0 µM): 4%
residual activity (CHEK2 (human); compound 0.1 µM): 99%
residual activity (CHEK2 (human); compound 1.0 µM): 103%
residual activity (CHEK2 (human); compound 10.0 µM): 59%
residual activity (CDK2 CCNA2 (human); compound 0.1 µM): 84%
residual activity (CDK2 CCNA2 (human); compound 1.0 µM): 84%
residual activity (CDK2 CCNA2 (human); compound 10.0 µM): 34%
residual activity (TTK (human); compound 0.1 µM): 89%
residual activity (TTK (human); compound 1.0 µM): 101%
residual activity (TTK (human); compound 10.0 µM): 61%
residual activity (EPHB2 (human); compound 0.1 µM): 108%
residual activity (EPHB2 (human); compound 1.0 µM): 80%
residual activity (EPHB2 (human); compound 10.0 µM): 37%
residual activity (MYLK (human); compound 0.1 µM): 104%
residual activity (MYLK (human); compound 1.0 µM): 107%
residual activity (MYLK (human); compound 10.0 µM): 60%
residual activity (MARK2 (human); compound 0.1 µM): 76%
residual activity (MARK2 (human); compound 1.0 µM): 63%
residual activity (MARK2 (human); compound 10.0 µM): 32%
residual activity (EPHB3 (human); compound 0.1 µM): 88%
residual activity (EPHB3 (human); compound 1.0 µM): 75%
residual activity (EPHB3 (human); compound 10.0 µM): 48%
residual activity (PAK4 (human); compound 0.1 µM): 82%
residual activity (PAK4 (human); compound 1.0 µM): 94%
residual activity (PAK4 (human); compound 10.0 µM): 62%
residual activity (CaMK1 (human); compound 0.1 µM): 86%
residual activity (CaMK1 (human); compound 1.0 µM): 85%
residual activity (CaMK1 (human); compound 10.0 µM): 45%
residual activity (LCK (mouse); compound 0.1 µM): 81%
residual activity (LCK (mouse); compound 1.0 µM): 40%
residual activity (LCK (mouse); compound 10.0 µM): 7%
residual activity (EPHA2 (human); compound 0.1 µM): 81%
residual activity (EPHA2 (human); compound 1.0 µM): 81%
residual activity (EPHA2 (human); compound 10.0 µM): 50%
residual activity (DYRK3 (human); compound 0.1 µM): 86%
residual activity (DYRK3 (human); compound 1.0 µM): 89%
SMILES: c1ccc2c(-c3cnn4cc(-c5ccc(N6CCNCC6)cc5)cnc34)ccnc2c1
